Results published in paper PMC6272646, “Understanding the Physicochemical Properties of Mitragynine, a Principal Alkaloid of Mitragyna speciosa, for Preclinical Evaluation” (Molecules, 2015).
≈ marks a conversion by molar mass, not a printed value. Like-named read-outs stand apart in the source and are kept apart here.

How the values were obtained:
[1] = pKa determination, conventional UV spectrophotometer method; format: physicochemical; conditions: aqueous buffer
From the text: The instruments employed were UV spectrophotometer 8453 UV-Vis Diode Array (Agilent, Santa Clara, CA, USA), and Multiskan* GO Microplate Spectrophotometer (Thermo Scientific, Waltham, MA, USA). Data were captured using the Thermo Scientific SkanIt Software (Thermo Scientific, Version 3.2). Buffer Maker Software (version 1.0.1.55, BPP Marcin Borkowski, Marki, Poland,) was used for preparation of buffers with constant ionic strength for pKa determination. The pH-meter employed throughout the study was a PH 211 Hanna (Padova, Italy) equipped with a combined glass electrode.
pKa determination was carried out using conventional UV and microplate spectrophotometer methods. Acetic acid, tris base and sodium carbonate were used to prepare stable buffers in the pH range of 3 to 12. The buffers were prepared to give a final buffer molarity of 0.01 M. Either NaOH or HCl were used for pH adjustment of the various buffers, whose ionic strength was kept constant at 0.02 by addition of NaCl.
Five mL aliquots of buffer of various pH were transferred into separate tubes. To each tube, mitragynine stock solution in acetonitrile (4 mg/mL) was added to give a final drug concentration of 20 µg/mL. The percentage of organic content in final buffer preparation was kept below 1%. The prepared solutions were immediately scanned in the range of 200–400 nm.
Stock solution of mitragynine at 0.5 mg/mL was prepared in acetonitrile. Ten microliters of the stock solution was transferred into individual test tubes and diluted with 1.0 mL buffer of various pH to give a final concentration of 5 μg/mL. For absorbance spectrum analysis, 250 μL of the various pH buffer solutions spiked with drug were placed in a 96-well quartz UV-transparent microplate and immediately scanned in the range of 200–400 nm at a scanning rate of 200 nm/s in triplicates. The pKa was calculated with equation pKa = pH + log (d − dm/di − d), for basic compound, where di is the absorbance of the ionised species, d is the absorbance of the solution tested and dm is the absorbance of the neutral species.

[2] = Equilibrium solubility in water and buffers (HPLC-UV); format: physicochemical
Description: The HPLC system consisted of a Jasco delivery pump (Tokyo, Japan) equipped with autosampler connected to a Waters 2487 detector (Milford, MA, USA) coupled to Jasco Chromnav software (Version 2.0, Tokyo, Japan). Chromatographic separation was performed on a C8 Agilent Eclipse plus (4.6 mm i.d. × 250 mm, 5-μm particle size; Apple Valley, MN, USA). The HPLC-UV method was adapted from our previous study and revalidated for the present HPLC system. The method was employed to quantify mitragynine in partition coefficient, stability, dissolution and solubility studies.
For solubility studies, an excess of mitragynine was added to 1.0 mL each of distilled water or buffers at pH 4, 7 and 9. The test tubes were placed in a water bath shaker at 37 degrees Celsius at 100 cycles/min for 48 h until equilibrium. The samples were centrifuged at 3000 rpm for 5 min and supernatant was taken for quantification of mitragynine by HPLC-UV. For stability studies, analogous buffers were used, but they were spiked with mitragynine in acetonitrile to give a concentration of 20 µg/mL (organic content was kept below 1%). A 0.1 mL aliquot was collected from each buffer system at intervals of 0, 0.5, 6.0 and 24.0 h for determination of mitragynine. Mitragynine concentrations were expressed as percentage recovered. All experiments were performed in triplicates.

[3] = rats, cited from earlier work
mice = system: mice; parameters: method as in Macko et al, 15; conditions: mitragynine salt solution, ref Macko et al, 15; cited from earlier work
rats = system: rats; parameters: method as in PMID 25262913; conditions: cited from earlier work
[4] = parameters: method as in PMID 24841968; conditions: cited from earlier work
[5] = Stability in simulated intestinal fluid (SIF, with enzymes); conditions: for Concentration Found in SIF: SIF pH 6.8 with pancreatin

`CC[C@@H]1CN2CCc3c([nH]c4cccc(OC)c34)[C@@H]2C[C@@H]1/C(=C\OC)C(=O)OC` [mitragynine] gave a pKa ([1]; UV Spectrophotometer, Day 1, read-out: pKa, interday repeatability) of 8.18, a pKa ([1]; UV Spectrophotometer, Day 2, read-out: pKa, interday repeatability) of 8.11 and a pKa ([1]; UV Spectrophotometer, Day 3, read-out: pKa, interday repeatability) of 8.15. The pKa ([1]; pH 7.52, target pH 7.6, actual pH 7.52, 20 µg/mL, 248 nm, read-out: pKa) was 8.02, the pKa ([1]; pH 7.6, conventional UV method, mean over pH 7.6-9.0, read-out: pKa (Mean ± SD)) was 8.11 ± 0.11 and the pKa ([1]; pH 7.78, target pH 7.8, actual pH 7.78, 20 µg/mL, 248 nm, read-out: pKa) was 8.16. For the same compound, the pKa ([1]; pH 7.96, target pH 8.0, actual pH 7.96, 20 µg/mL, 248 nm, read-out: pKa) was 8.17, the pKa ([1]; pH 8.13, target pH 8.2, actual pH 8.13, 20 µg/mL, 248 nm, read-out: pKa) was 8.18 and the pKa ([1]; pH 8.34, target pH 8.4, actual pH 8.34, 20 µg/mL, 248 nm, read-out: pKa) was 8.13. It also gave a pKa ([1]; pH 8.45, target pH 8.6, actual pH 8.45, 20 µg/mL, 248 nm, read-out: pKa) of 8.05, a pKa ([1]; pH 8.71, target pH 8.8, actual pH 8.71, 20 µg/mL, 248 nm, read-out: pKa) of 8.27 and a pKa ([1]; pH 8.92, target pH 9.0, actual pH 8.92, 20 µg/mL, 248 nm, read-out: pKa) of 7.93. For the same compound, the solubility at 48 h ([2]; aqueous buffer, thermodynamic from solid, buffer pH 4, 37 °C) was 3500 ± 10 µg/mL (≈ 8780 µM), the solubility at 48 h ([2]; aqueous buffer, thermodynamic from solid, buffer pH 7, 37 °C) was 88.9 ± 1.6 µg/mL (≈ 223 µM) and the solubility at 48 h ([2]; aqueous buffer, thermodynamic from solid, buffer pH 9, 37 °C) was 18.7 ± 0.4 µg/mL (≈ 46.9 µM). The solubility at 48 h ([2]; distilled water, thermodynamic from solid, water, 37 °C) was 64.6 ± 1.2 µg/mL (≈ 162 µM), the solubility at 48 h ([2]; distilled water, water, 37 °C) was less than 100 µg/mL and the Cmax ([3]; oral dose 20–50 mg/kg) was 400 to 2300 ng/mL. For the same compound, the half-life ([3]; oral dose 20–50 mg/kg) was 3.8 to 9.4 h, the absolute oral bioavailability [3] was “≈ 3%” and the “dose up to which no adverse reactions were reported” value (mice) was 920 mg/kg. For the same compound, the addictive potential effects (rats; i.p. in Tween 80, high (30 mg/kg) and moderate (10 mg/kg) doses) was “observed”, the addictive potential effects (rats; i.p. in Tween 80, mild (5 mg/kg) and low (1 mg/kg) doses) was “absent” and the “drug loss in SGF” value [4] was 26%. For the same compound, the “Concentration Found in SIF” value ([5]; 0 min, 37 °C) was 6700 ± 600 ng/mL, the “RD (relative difference vs time 0) in SIF” value ([5]; 10 min) was −0.07% and the “Concentration Found in SIF” value ([5]; 10 min, 37 °C) was 6690 ± 630 ng/mL. For the same compound, the “Concentration Found in SIF” value ([5]; 20 min, 37 °C) was 6560 ± 670 ng/mL, the “RD (relative difference vs time 0) in SIF” value ([5]; 30 min) was 4.43% and the “Concentration Found in SIF” value ([5]; 30 min, 37 °C) was 6990 ± 210 ng/mL. The “RD (relative difference vs time 0) in SIF” value ([5]; 40 min) was 4.94%, the “Concentration Found in SIF” value ([5]; 40 min, 37 °C) was 7030 ± 130 ng/mL and the “RD (relative difference vs time 0) in SIF” value ([5]; 50 min) was 3.49%. The “Concentration Found in SIF” value ([5]; 50 min, 37 °C) was 6930 ± 130 ng/mL, the “RD (relative difference vs time 0) in SIF” value ([5]; 60 min) was 2.49% and the “Concentration Found in SIF” value ([5]; 60 min, 37 °C) was 6860 ± 10 ng/mL. The “RD (relative difference vs time 0) in SIF” value ([5]; 120 min) was 1.31%, the “Concentration Found in SIF” value ([5]; 120 min, 37 °C) was 6780 ± 790 ng/mL and the “RD (relative difference vs time 0) in SIF” value ([5]; 180 min) was 3.46%. For the same compound, the “Concentration Found in SIF” value ([5]; 180 min, 37 °C) was 6930 ± 770 ng/mL and the “stability in SIF (in words)” value ([5]; SIF pH 6.8, 3 h, 37 °C) was “considered stable”.
